Consider eleven molecules from EPA's ToxValDB 9.5.

In data set [1] the test system is Rattus norvegicus. The settings on record: repeat dose other; oral.
The test system of data set [2] is Rattus norvegicus. To be noted: oral.
For data set [3], the system named is Rattus norvegicus. The settings on record: uterotrophic; duration: 2 days; injection; subcutaneous; Active.
The test system of data set [4] is Rattus norvegicus. To be noted: for NOAEL: oral.
The test system of data set [5] is Rattus norvegicus. To be noted: oral; for NOAEL: M/F.
Data set [6] relates to Rattus norvegicus. The settings on record: oral, M/F.
Data set [7] has as its system Rattus norvegicus. To be noted: for LC50 / LD50: acute.
The test system of data set [8] is Mus musculus. To be noted: for LD50: acute; for NOAEL (% diet) / LOAEL (% diet): duration: 105 days.
Data set [9] has as its system Oryctolagus sp. To be noted: acute; dermal; occlusive.
For data set [10], the system named is Rattus norvegicus. The settings on record: subchronic; duration: 13 weeks; oral; water; M/F; Fischer 344; Deaths + Body Weight Changes: decrease + Food Consumption: decrease + Hematology: RBC decrease, Hct decrease, Hgb decrease, Plt increase + ….
The mark [11] stands for this setting: chronic, diet, Liver cytomegaly, fatty metamorphosis, angiectasis + thyroid cystic follicles.
[12] abbreviates: subchronic, duration: 13 weeks, oral, drinking water, Fischer 344.
[13] abbreviates: subchronic, duration: 13 weeks, oral, drinking water, Wistar.
Setting [14] is: subchronic, duration: 89 days, oral, gavage, Sprague-Dawley.
[15] abbreviates: subchronic, duration: 13 weeks, oral, drinking water, B6C3F1.
[16] abbreviates: subchronic, duration: 90 days, gavage, increased liver weight.
[17] abbreviates: developmental, duration: 19 days, inhalation, Sprague-Dawley.
Setting [18] is: reproduction developmental, duration: 19 days, inhalation, F, Sprague-Dawley.
The mark [19] stands for this setting: reproduction developmental, duration: 55 days, oral, generation: F0.
The mark [20] stands for this setting: reproduction developmental, duration: 112 days, oral, generation: F0.
The mark [21] stands for this setting: reproduction developmental, duration: 112 days, oral, generation: F1.
[22] abbreviates: developmental, oral, gavage, CD1.
[23] abbreviates: reproduction developmental, oral, drinking water, CD1, generation: F1.
[24] abbreviates: reproduction developmental, oral, gavage, F, CD1.

Several values for one entry are separate records, joined by “and”; a condition that tells them apart may be missing. Equal entries are not always repeated.

Usually LOAEL stands for the lowest dose or exposure tested at which an adverse effect was seen. For orientation: NOAEL means the highest tested level that showed no adverse finding. A word on the LD50: it is the dose expected to kill half of the subjects tested.

Regarding `[O-2].[Zn+2]` [Zinc oxide], in data set [1], the LOAEL was 320 mg/kg-day and the NOAEL turned out to be 160 mg/kg-day.

As to `CCN(C=O)CC` [Diethylformamide], the NOAEL in data set [2] (chronic, duration: 73 weeks, gavage, M, Wistar, Whole Body Effects) was 1.1 mg/kg-day.

The molecule `CNN` [Methylhydrazine] came in with an NOAEL in [2] (developmental, duration: 13 days, gavage, F, Sprague-Dawley, developmental) of 1 mg/kg-day.

Molecule `Cc1cc(N)ccc1N.O=S(=O)(O)O` [p-Toluenediamine sulfate] displayed a no observed adverse effect level (NOAEL) in data set [2] (subchronic, duration: 13 weeks, gavage, M, Sprague-Dawley) of 2.5 mg/kg-day.

Consider `CC1(C)CCCCC1(C)C` [Tetramethylcyclohexane], for which the NOAEL in data set [2] (subchronic, duration: 90 days, diet, M/F, Sprague-Dawley, Whole Body Effects) was 3000 mg/kg-day.

For the molecule `O=[N+]([O-])[O-].O=[N+]([O-])[O-].O=[N+]([O-])[O-].[Sm+3]` [Samarium nitrate], the lowest-observed-adverse-effect level (LOAEL) in [2] (chronic, duration: 5 months, drinking water, M/F, Sprague-Dawley) came to 0.438 mg/kg-day.

`ClC1(Cl)C2(Cl)C3(Cl)C4(Cl)C(Cl)(Cl)C5(Cl)C3(Cl)C1(Cl)C5(Cl)C24Cl` (stereo unspecified) [Mirex]: the LEL in data set [3] was determined as 1 mg/day. Besides, the NOAEL in data set [4] (chronic, duration: 2 years, diet, Liver: Angiectasis + Liver: Cytomegaly + Liver: Fatty metamorphosis + Thyroid: Cystic follicles) stood at 0.07 mg/kg-day; in data set [5] (chronic, duration: 2 years, diet, Fischer 344, hepatic) it was 0.075 mg/kg-day; in [6] (setting [11]), 0.07 mg/kg-day. For the same molecule, in [6] (setting [11]), the LOAEL stood at 0.7 mg/kg-day.

Take `c1ccncc1` [Pyridine]: the LC50 in [7] (inhalation) was below 12900 mg/m3; in data set [7] (inhalation, Crl:CD(SD) BR) it was ≥ 15900 mg/m3 and ≤ 19400 mg/m3; in [7] (inhalation, Sprague-Dawley) it was 29200 mg/m3 and 29100 mg/m3. Besides, the LOAEL in [7] (setting [12]) is 38 mg/kg-day; in [7] (setting [13]), 38 mg/kg-day; in data set [7] (subchronic, duration: 13 weeks, oral, gavage, Fischer 344), 12.5 mg/kg-day; in [7] (setting [14]), 10 mg/kg-day; in data set [8] (setting [15]), 26.5 mg/kg-day; in data set [8] (subchronic, duration: 13 weeks, oral, gavage, B6C3F1), 25 mg/kg-day. The molecule also returned an LOAEL in [6] (setting [16]) of 10 mg/kg-day. In addition, the NOAEL in data set [7] (setting [12]) was 15.2 mg/kg-day; in data set [7] (setting [13]), 15.2 mg/kg-day; in data set [7] (setting [14]), 1 mg/kg-day; in data set [8] (setting [15]), 13.2 mg/kg-day; in data set [4] (subchronic, duration: 90 days, gavage, Liver: Increased relative weight + Liver: Increased weight), 1 mg/kg-day; in data set [6] (setting [16]) it was 1 mg/kg-day. Moreover, in data set [9], the LD50 is ≥ 1000 mg/kg and ≤ 2000 mg/kg. In addition, the NOEL in data set [10] was below 7.6 mg/kg-day.

As to `CC(=O)CC(C)C` [4-Methyl-2-pentanone], the NOAEL is 250 mg/kg-day in [4] (subchronic, duration: 13 weeks, gavage, Kidney: Increased absolute weight in females + Kidney: Increased relative weight in females + Kidney: Increased urinary protein levels in …) and 25 mg/kg-day in data set [1]. Also, in data set [4] (subchronic, duration: 90 days, inhalation, intermittent, Kidney: Effects + Liver: Increased weight), the NOEL worked out at 205 mg/m3.

In the case of `Clc1cc2oc3c(Cl)c(Cl)c(Cl)cc3c2cc1Cl` [2,3,4,7,8-Pentachlorodibenzofuran], the LOAEL in [5] (chronic, duration: 105 weeks, gavage, F, Harlan Sprague-Dawley, hepatic, endocrine) was found to be 6e-06 mg/kg-day; in data set [1], 0.00016 mg/kg-day. The NOAEL was 0.0005 mg/kg-day in data set [5] (developmental, duration: 1 days, gavage, Wistar, developmental) and 1.6e-05 mg/kg-day in data set [1].

Consider `CCO` [Ethanol], for which the 50% lethal dose (LD50) in [7] (injection, Intraperitoneal, Wistar) was 6710 mg/kg and 5100 mg/kg; in data set [7] (oral, Wistar), 10600 mg/kg and 7060 mg/kg; in data set [8] (injection, Intraperitoneal, Swiss-Webster), 9200 mg/kg; in data set [8] (oral, NMRI), 8300 mg/kg. Further, the LOAEL in data set [7] (setting [17]) was above 37700 mg/m3; in data set [7] (setting [18]), 37700 mg/m3; in [8] (setting [22]), above 6400 mg/kg-day; in [8] (setting [24]), 3600 mg/kg-day; in data set [1] it was 319 mg/kg-day. Also, the NOAEL was at least 37700 mg/m3 in data set [7] (setting [17]); 30100 mg/m3 in [7] (setting [18]); at least 6400 mg/kg-day in data set [8] (setting [22]); 2200 mg/kg-day in data set [8] (setting [24]); 31.9 mg/kg-day in data set [1]. The “LOAEL (% diet)” value in [7] (setting [19]) was 5; in [7] (setting [20]) it was at most 5; in data set [7] (setting [21]), above 5; in data set [8] (setting [23]), 15; in data set [8] (reproduction developmental, oral, drinking water, CD1, generation: F2) it was above 15. In addition, the “NOAEL (% diet)” value in data set [7] (setting [19]) was 2; in [7] (setting [20]), below 5; in data set [7] (setting [21]) it was at most 5; in [8] (reproduction developmental, oral, drinking water, CD1, generation: F0), 15; in data set [8] (setting [23]) it was 10.
